Data from article PMC5518475 (Bioorganic & medicinal chemistry letters, 2017).

Experiments:
hM4 = biological target: T1, hM4 (Homo sapiens, UniProt P08173); assay type: cell-based; settings: for hM4 pEC50 (±SEM): hM4/Gqi5-CHO cells, EC20 fixed concentration of acetylcholine, mean of n=3
T1 sequence (P08173 1-479): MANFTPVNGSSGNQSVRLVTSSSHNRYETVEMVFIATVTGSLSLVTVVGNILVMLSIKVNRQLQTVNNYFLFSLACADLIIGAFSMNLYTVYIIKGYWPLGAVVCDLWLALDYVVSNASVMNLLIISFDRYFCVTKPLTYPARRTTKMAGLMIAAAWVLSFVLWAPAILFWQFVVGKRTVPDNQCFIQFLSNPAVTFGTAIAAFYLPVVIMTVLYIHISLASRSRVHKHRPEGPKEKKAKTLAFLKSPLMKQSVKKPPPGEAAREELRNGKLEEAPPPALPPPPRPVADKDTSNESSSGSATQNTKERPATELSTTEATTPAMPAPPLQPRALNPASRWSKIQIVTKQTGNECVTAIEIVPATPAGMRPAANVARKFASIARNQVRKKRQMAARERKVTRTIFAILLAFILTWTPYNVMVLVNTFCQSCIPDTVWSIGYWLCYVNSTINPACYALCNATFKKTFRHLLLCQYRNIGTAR

Rat in vivo PK = settings: rat in vivo PK studies
[1] = Predicted hepatic clearance from rat hepatic microsomal CLint; assay type: in vitro ADME; settings: based on hepatic microsomal CLint
[2] = Predicted hepatic clearance from human hepatic microsomal CLint; assay type: in vitro ADME; settings: based on hepatic microsomal CLint
human P-gp = human P-gp (Homo sapiens, UniProt P08183); test: P-gp efflux in MDCK-MDR1 cells; assay type: in vitro ADME
Sequence of human P-gp (P08183 whole entry): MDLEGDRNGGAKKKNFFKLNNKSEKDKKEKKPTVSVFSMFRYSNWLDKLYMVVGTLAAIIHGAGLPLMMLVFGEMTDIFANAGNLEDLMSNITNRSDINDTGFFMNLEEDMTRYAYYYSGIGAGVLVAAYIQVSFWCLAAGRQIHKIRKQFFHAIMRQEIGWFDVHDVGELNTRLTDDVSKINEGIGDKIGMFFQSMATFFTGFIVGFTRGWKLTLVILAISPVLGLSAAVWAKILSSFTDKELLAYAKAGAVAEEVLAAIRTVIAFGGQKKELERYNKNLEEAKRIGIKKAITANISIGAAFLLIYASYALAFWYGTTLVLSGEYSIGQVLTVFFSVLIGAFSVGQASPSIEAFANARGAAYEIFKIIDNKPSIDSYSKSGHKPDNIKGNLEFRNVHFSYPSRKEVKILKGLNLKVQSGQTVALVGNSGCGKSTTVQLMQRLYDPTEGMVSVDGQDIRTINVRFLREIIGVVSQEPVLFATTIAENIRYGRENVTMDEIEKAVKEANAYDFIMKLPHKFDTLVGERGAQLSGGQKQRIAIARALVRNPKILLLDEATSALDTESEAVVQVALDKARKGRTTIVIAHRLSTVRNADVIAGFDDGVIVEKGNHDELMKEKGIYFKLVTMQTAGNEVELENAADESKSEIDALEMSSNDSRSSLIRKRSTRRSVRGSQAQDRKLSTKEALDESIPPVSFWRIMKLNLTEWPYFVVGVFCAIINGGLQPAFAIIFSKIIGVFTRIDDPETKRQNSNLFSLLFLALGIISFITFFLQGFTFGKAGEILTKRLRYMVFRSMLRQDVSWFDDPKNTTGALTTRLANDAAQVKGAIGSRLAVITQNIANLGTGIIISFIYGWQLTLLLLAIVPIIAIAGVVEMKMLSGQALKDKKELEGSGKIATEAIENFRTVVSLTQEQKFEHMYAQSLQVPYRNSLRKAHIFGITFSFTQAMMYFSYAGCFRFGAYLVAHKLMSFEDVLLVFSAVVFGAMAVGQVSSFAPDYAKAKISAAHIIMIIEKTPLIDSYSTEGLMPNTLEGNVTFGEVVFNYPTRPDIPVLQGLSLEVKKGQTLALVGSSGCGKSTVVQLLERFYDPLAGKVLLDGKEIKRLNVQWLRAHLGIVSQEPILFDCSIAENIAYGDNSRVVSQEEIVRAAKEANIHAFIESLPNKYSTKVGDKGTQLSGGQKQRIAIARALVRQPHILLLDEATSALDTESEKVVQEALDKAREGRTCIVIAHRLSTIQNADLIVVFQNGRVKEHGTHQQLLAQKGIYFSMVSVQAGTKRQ

Dog in vivo PK = settings: female, mongrel, plasma, iv
CYP450 = CYP450 time-dependent inhibition; assay type: in vitro ADME
cynomolgus monkey M4 = cynomolgus monkey M4 (Macaca fascicularis, UniProt G7PQB4); test: ACh CRC fold-shift experiments; assay type: cell-based; settings: operational model
human M4 = biological target: T2, human M4 (Homo sapiens, UniProt P08173); test: ACh CRC fold-shift experiments; assay type: cell-based; settings: operational model
T2 sequence (P08173 1-479): T1 sequence (P08173 1-479)

Predicted human PK = settings: based on moderate and small predicted CL and Vss

Compound: Cc1nnc2sc(C(=O)NC3CN(c4ccc(S(=O)(=O)C(F)F)cc4)C3)c(N)c2c1C [Compound 17g]
- weaker hM4 activity compared to that of 17j (hM4): ~40 fold
- hM4 pEC50 (±SEM) (hM4): 6.63±0.29

Compound: COc1cc(N2CC(NC(=O)c3sc4nnc(C)c(C)c4c3N)C2)ccn1 [Compound 16o]
- rat in vivo PK finding on metabolism (Rat in vivo PK): evidence for extrahepatic non-CYP450 metabolism

Compound: Cc1cccc(OC(=O)N2CC(NC(=O)c3sc4nnc(C)c(C)c4c3N)C2)c1 [Compound 6c]
- hM4 pEC50 (±SEM) (hM4): 7.23±0.17

Compound: Cc1nnc2sc(C(=O)NC3CN(c4ccc(S(=O)(=O)C(F)(F)F)cc4)C3)c(N)c2c1C [Compound 17f]
- weaker hM4 activity compared to that of 17j (hM4): ~ 10 fold

Compound: Cc1nnc2sc(C(=O)NC3CN(C(=O)c4ccccc4)C3)c(N)c2c1C [Compound 6f]
- hM4 pEC50 (±SEM) (hM4): 6.22±0.25

Compound: Cc1nnc2sc(C(=O)NC3CN(c4ccc(C(F)(F)F)nc4)C3)c(N)c2c1C [Compound 16j]
- predicted CLhep [1]: 18 mL/min/kg
- predicted CLhep [2]: 5.6 mL/min/kg

Compound: Cc1nnc2sc(C(=O)NC3CN(c4ccncc4Cl)C3)c(N)c2c1C [Compound 16p]
- rat in vivo PK finding on metabolism (Rat in vivo PK): evidence for extrahepatic non-CYP450 metabolism

Compound: Cc1nnc2sc(C(=O)NC3CN(c4cc(F)nc(F)c4)C3)c(N)c2c1C [Compound 16q]
- human P-gp efflux substrate (human P-gp): substrates for human P-gp efflux

Compound: Cc1nnc2sc(C(=O)NC3CN(c4cccc(F)c4F)C3)c(N)c2c1C [Compound 17j]
- clearance (Dog in vivo PK): 17 mL/min/kg
- time-dependent CYP450 inhibition (CYP450): no evidence for time-dependent inhibition
- Ames test result (Ames test): no evidence of mutagenesis
- cynomolgus monkey M4 αβ (cynomolgus monkey M4): 120
- human M4 αβ (human M4): 380
- predicted human t1/2 (Predicted human PK): 1 to 2 h

Compound: Cc1nnc2sc(C(=O)NC3CN(c4nc5ccccc5o4)C3)c(N)c2c1C [Compound 16b]
- hM4 pEC50 (±SEM) (hM4): 6.45±0.19

Compound: Cc1nnc2sc(C(=O)NC3CN(C(=O)OCc4ccccc4)C3)c(N)c2c1C [Compound 6a]
- hM4 pEC50 (±SEM) (hM4): 7.62±0.19

Compound: Cc1nnc2sc(C(=O)NC3CN(c4ccnc(Cl)c4)C3)c(N)c2c1C [Compound 16n]
- hM4 pEC50 (±SEM) (hM4): 6.80±0.19

Compound: Cc1nnc2sc(C(=O)NC3CN(c4ccccn4)C3)c(N)c2c1C [Compound 16d]
- hM4 pEC50 (±SEM) (hM4): 6.99±0.18

Compound: Cc1nnc2sc(C(=O)NC3CN(c4ccc(F)cc4F)C3)c(N)c2c1C [Compound 17h]
- hM4 pEC50 (±SEM) (hM4): 7.49±0.12

Compound: Cc1nnc2sc(C(=O)NC3CN(c4cccnc4)C3)c(N)c2c1C [Compound 16e]
- human P-gp efflux substrate (human P-gp): substrates for human P-gp efflux

Compound: Cc1nnc2sc(C(=O)NC3CN(c4cccnc4F)C3)c(N)c2c1C [Compound 16i]
- hM4 pEC50 (±SEM) (hM4): 7.74±0.22
- human P-gp efflux substrate (human P-gp): substrates for human P-gp efflux

Compound: Cc1nnc2sc(C(=O)NC3CN(c4nc5cccnc5s4)C3)c(N)c2c1C [Compound 16c]
- predicted CLhep [1]: 41 mL/min/kg
- predicted CLhep [2]: 12 mL/min/kg
- hM4 pEC50 (±SEM) (hM4): 7.04±0.16

Compound: Cc1nnc2sc(C(=O)NC3CN(c4ccncn4)C3)c(N)c2c1C [Compound 16h]
- hM4 pEC50 (±SEM) (hM4): 7.48±0.17
